Test results published in the CheMixHub ionic liquid set.
Where “and” joins values, the source holds several entries; their conditions need not be identical. Equal entries are not always repeated.

Assay: xn = mol fraction of the nth substance listed

CCCC[n+]1ccn(C)c1.[Br-] + N[C@@H](Cc1ccccc1)C(=O)O + O
viscosity [mPa·s], 101.3 kPa
Conditions | 293.15 K | 298.15 K | 303.15 K | 308.15 K | 313.15 K
x2 = 0, x1 = 0.0007203 | – | – | – | – | 0.67
x2 = 0.0003641, x1 = 0.00072 | 1 | 0.97 | 0.88 | 0.77 | 0.68
x2 = 0.0003648, x1 = 0.001439 | 0.99 | 0.9 | 0.8 | 0.66 | 0.59
x2 = 0.0007259, x1 = 0.0007198 | 1.02 | 0.98 | 0.89 | 0.78 | 0.69
x2 = 0.0007309, x1 = 0.001438 | 1 | 0.91 | 0.81 | 0.68 | 0.6
x2 = 0.001089, x1 = 0.0007195 | 1.03 | 0.99 | 0.91 | 0.8 | 0.7
x2 = 0.001097, x1 = 0.001438 | 1.02 | 0.92 | 0.82 | 0.69 | 0.61
x2 = 0.00145, x1 = 0.0007192 | 1.04 | 1 | 0.92 | 0.81 | 0.72
x2 = 0.001463, x1 = 0.001437 | 1.03 | 0.93 | 0.83 | 0.7 | 0.63
x2 = 0.001814, x1 = 0.000719 | 1.05 | 1.02 | 0.93 | 0.82 | 0.73
x2 = 0.001827, x1 = 0.001437 | 1.04 | 0.95 | 0.85 | 0.71 | 0.64
x2 = 0.002174, x1 = 0.0007187 | 1.07 | 1.03 | 0.95 | 0.84 | 0.74
x2 = 0.002193, x1 = 0.001436 | 1.06 | 0.96 | 0.86 | 0.73 | 0.65
x2 = 0.002537, x1 = 0.0007185 | 1.08 | 1.04 | 0.96 | 0.85 | 0.76
x2 = 0.002556, x1 = 0.001436 | 1.07 | 0.97 | 0.87 | 0.74 | 0.67

CCCC[NH3+].O=[N+]([O-])[O-] + O
Conditions | viscosity
278.15 K, 101.33 kPa, x2 = 0.435 | 46.7 mPa·s
283.15 K, 101.33 kPa, x2 = 0.435 | 37.92 mPa·s and 48.9 mPa·s
288.15 K, 101.33 kPa, x2 = 0.435 | 31.29 mPa·s and 40.44 mPa·s
293.15 K, 101.33 kPa, x2 = 0.435 | 26.16 mPa·s and 33.68 mPa·s
298 K, 101 kPa, x2 = 0 | 108.5 mPa·s
298 K, 101 kPa, x2 = 0.294 | 33.93 mPa·s
298 K, 101 kPa, x2 = 0.801 | 3.93 mPa·s
298 K, 101 kPa, x2 = 0.9 | 2.18 mPa·s
298.15 K, 101.33 kPa, x2 = 0.435 | 22.32 mPa·s and 28.34 mPa·s
303.15 K, 101.33 kPa, x2 = 0.435 | 18.92 mPa·s and 23.98 mPa·s
308.15 K, 101.33 kPa, x2 = 0.435 | 16.33 mPa·s and 20.7 mPa·s
313.15 K, 101.33 kPa, x2 = 0.435 | 14.22 mPa·s and 17.85 mPa·s
318.15 K, 101.33 kPa, x2 = 0.435 | 12.47 mPa·s and 16.84 mPa·s
323.15 K, 101.33 kPa, x2 = 0.435 | 11.02 mPa·s and 13.73 mPa·s
328.15 K, 101.33 kPa, x2 = 0.435 | 9.79 mPa·s and 12.73 mPa·s
333.15 K, 101.33 kPa, x2 = 0.435 | 8.76 mPa·s and 10.31 mPa·s
338.15 K, 101.33 kPa, x2 = 0.435 | 7.87 mPa·s and 9.34 mPa·s

CCOCC[n+]1ccn(C)c1.O=S(=O)([N-]S(=O)(=O)C(F)(F)F)C(F)(F)F + O
101 kPa, x1 = 0.8424
Conditions | viscosity [mPa·s]
283 K | 68.1
298.1 K | 34

CC[n+]1ccn(C)c1.[Cl-] + O
viscosity [mPa·s], 100 kPa
Conditions | 278.15 K | 283.15 K | 288.15 K | 293.15 K | 298.15 K | 303.15 K | 308.15 K | 313.15 K | 373 K
x1 = 9.063e-05 | 1.528 | 1.312 | 1.141 | 1.004 | 0.892 | 0.799 | 0.72 | 0.653 | –
x1 = 0.0001805 | 1.531 | 1.314 | 1.144 | 1.006 | 0.894 | 0.8 | 0.721 | 0.654 | –
x1 = 0.0003599 | 1.533 | 1.317 | 1.148 | 1.008 | 0.896 | 0.802 | 0.723 | 0.655 | –
x1 = 0.0005394 | 1.538 | 1.321 | 1.15 | 1.011 | 0.898 | 0.804 | 0.724 | 0.656 | –
x1 = 0.0007199 | 1.541 | 1.323 | 1.152 | 1.013 | 0.899 | 0.805 | 0.725 | 0.658 | –
x1 = 0.0008996 | 1.545 | 1.327 | 1.156 | 1.015 | 0.902 | 0.807 | 0.728 | 0.659 | –
x1 = 0.001079 | 1.547 | 1.329 | 1.158 | 1.018 | 0.904 | 0.809 | 0.729 | 0.661 | –
x1 = 0.001351 | 1.554 | 1.335 | 1.163 | 1.023 | 0.908 | 0.813 | 0.732 | 0.664 | –
x1 = 0.001799 | 1.563 | 1.344 | 1.17 | 1.029 | 0.914 | 0.817 | 0.736 | 0.667 | –
x1 = 0.87 | – | – | – | – | – | – | – | – | 23
x1 = 0.9302 | – | – | – | – | – | – | – | – | 24
x1 = 0.9756 | – | – | – | – | – | – | – | – | 32
x1 = 1 | – | – | – | – | – | – | – | – | 36
